# Reference: ChEMBL document CHEMBL1153895, “Discovery of 4,6-bis-anilino-1H-pyrrolo[2,3-d]pyrimidines: potent inhibitors of the IGF-1R receptor tyrosine kinase” (Bioorg Med Chem Lett, 2009)
# Columns and labels:
# [1] = target: T1, Insulin-like growth factor 1 receptor (Homo sapiens, UniProt P08069); experiment: Inhibition of GST-tagged human IGF1R expressed in Sf9 cells by Wallac Victor fluorometer
# [2] = target: T1, Insulin-like growth factor 1 receptor; experiment: Inhibition of human IGF1R phosphorylation expressed in HEK293 cells by DELFIA; assay type: cell-based
# [3] = target: Insulin receptor (Homo sapiens, UniProt P06213); experiment: Inhibition of human IR
# Chain of Insulin receptor (P06213 28-758 limits assumed): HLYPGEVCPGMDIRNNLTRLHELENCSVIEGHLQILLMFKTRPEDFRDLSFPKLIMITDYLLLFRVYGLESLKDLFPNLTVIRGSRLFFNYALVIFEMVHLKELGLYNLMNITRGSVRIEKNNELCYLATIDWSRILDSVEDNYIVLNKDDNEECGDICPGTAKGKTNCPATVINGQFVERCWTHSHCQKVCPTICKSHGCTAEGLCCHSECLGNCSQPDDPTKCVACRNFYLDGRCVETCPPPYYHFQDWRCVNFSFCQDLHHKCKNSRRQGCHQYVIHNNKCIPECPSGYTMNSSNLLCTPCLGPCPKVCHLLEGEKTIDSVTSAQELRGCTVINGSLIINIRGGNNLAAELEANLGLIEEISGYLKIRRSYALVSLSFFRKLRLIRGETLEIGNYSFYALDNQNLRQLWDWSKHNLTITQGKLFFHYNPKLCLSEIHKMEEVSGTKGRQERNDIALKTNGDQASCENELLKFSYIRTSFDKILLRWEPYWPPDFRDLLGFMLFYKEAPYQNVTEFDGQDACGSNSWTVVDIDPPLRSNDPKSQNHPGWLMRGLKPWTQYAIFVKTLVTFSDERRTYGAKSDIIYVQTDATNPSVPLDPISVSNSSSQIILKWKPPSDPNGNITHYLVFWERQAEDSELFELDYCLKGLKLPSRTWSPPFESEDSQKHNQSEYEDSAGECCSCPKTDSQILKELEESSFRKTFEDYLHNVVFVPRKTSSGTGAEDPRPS
# Chain of Insulin receptor (P06213 763-1382 limits assumed): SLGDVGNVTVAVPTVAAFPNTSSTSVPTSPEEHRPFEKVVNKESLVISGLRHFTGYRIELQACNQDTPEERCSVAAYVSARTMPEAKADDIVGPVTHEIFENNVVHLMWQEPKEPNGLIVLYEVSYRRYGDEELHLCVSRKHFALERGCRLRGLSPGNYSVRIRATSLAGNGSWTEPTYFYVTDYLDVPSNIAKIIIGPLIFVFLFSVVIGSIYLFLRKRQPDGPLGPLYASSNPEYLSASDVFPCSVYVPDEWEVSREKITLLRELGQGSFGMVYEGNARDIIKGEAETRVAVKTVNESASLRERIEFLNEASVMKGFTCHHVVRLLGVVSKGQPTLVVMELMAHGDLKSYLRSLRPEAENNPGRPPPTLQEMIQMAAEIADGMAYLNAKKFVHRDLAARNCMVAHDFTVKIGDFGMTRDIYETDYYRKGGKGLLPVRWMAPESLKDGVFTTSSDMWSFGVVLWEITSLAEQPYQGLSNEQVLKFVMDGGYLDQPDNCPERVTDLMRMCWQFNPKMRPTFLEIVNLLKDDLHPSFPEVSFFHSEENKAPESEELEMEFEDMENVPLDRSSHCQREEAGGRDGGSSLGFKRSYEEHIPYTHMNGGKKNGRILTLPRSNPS
# [4] = target: Mitogen-activated protein kinase 8 (Homo sapiens, UniProt P45983); experiment: Inhibition of JNK1
# Chain of Mitogen-activated protein kinase 8 (P45983 whole entry): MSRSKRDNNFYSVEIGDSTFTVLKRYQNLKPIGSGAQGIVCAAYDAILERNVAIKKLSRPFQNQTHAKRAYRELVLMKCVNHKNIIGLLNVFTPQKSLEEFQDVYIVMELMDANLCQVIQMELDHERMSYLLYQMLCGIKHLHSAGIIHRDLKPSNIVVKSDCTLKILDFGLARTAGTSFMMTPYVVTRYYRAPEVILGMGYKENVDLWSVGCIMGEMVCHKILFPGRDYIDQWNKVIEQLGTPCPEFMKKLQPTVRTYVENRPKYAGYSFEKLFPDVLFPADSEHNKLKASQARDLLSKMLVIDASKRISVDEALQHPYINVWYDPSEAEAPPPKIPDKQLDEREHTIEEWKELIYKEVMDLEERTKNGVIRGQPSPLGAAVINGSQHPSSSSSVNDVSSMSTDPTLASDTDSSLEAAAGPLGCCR
# [5] = target: ALK tyrosine kinase receptor (Homo sapiens, UniProt Q9UM73); experiment: Inhibition of ALK
# Chain of ALK tyrosine kinase receptor (Q9UM73 whole entry): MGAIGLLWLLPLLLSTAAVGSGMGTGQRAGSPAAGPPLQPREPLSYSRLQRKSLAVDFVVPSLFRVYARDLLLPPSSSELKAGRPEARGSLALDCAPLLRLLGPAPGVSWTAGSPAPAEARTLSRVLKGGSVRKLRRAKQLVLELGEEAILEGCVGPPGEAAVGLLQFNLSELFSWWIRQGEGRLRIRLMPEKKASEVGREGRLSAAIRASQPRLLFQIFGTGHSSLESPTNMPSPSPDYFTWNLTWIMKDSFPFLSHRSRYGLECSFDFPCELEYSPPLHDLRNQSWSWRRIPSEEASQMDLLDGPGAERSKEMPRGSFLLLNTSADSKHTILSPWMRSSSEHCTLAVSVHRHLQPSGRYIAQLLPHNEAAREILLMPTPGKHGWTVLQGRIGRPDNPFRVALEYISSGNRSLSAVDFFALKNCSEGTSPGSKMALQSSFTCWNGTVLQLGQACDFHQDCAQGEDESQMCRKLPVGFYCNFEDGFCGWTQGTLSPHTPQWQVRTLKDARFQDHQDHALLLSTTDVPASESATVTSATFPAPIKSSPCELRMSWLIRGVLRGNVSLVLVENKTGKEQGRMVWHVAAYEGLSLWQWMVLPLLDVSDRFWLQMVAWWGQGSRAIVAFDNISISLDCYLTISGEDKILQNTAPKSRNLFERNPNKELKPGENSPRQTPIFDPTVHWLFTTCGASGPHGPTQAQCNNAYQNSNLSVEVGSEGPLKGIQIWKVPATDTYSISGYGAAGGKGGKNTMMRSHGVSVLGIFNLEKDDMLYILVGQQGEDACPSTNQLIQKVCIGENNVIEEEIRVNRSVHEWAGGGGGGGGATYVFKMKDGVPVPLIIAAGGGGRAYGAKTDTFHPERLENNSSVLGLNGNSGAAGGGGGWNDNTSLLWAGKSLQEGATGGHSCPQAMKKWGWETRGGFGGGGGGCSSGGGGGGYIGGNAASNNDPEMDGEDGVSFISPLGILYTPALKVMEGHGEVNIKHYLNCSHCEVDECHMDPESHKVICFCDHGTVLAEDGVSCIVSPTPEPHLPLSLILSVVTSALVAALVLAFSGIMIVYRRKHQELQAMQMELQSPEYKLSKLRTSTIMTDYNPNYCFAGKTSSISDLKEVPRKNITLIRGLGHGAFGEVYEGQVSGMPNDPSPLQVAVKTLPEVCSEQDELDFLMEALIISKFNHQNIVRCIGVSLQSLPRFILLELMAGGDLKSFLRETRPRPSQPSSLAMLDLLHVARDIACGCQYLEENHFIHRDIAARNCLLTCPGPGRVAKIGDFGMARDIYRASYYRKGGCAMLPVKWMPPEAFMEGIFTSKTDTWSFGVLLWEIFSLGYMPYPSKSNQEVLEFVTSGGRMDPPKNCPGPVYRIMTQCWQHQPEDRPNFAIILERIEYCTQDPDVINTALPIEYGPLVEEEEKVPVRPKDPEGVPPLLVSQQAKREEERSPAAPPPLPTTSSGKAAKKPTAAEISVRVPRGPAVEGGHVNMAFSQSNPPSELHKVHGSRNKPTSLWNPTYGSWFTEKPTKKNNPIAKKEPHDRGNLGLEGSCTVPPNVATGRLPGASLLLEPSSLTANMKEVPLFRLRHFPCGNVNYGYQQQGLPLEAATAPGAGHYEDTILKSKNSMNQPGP
# [6] = target: Aurora kinase B (Homo sapiens, UniProt Q96GD4); experiment: Inhibition of Aurora B
# Chain of Aurora kinase B (Q96GD4 whole entry): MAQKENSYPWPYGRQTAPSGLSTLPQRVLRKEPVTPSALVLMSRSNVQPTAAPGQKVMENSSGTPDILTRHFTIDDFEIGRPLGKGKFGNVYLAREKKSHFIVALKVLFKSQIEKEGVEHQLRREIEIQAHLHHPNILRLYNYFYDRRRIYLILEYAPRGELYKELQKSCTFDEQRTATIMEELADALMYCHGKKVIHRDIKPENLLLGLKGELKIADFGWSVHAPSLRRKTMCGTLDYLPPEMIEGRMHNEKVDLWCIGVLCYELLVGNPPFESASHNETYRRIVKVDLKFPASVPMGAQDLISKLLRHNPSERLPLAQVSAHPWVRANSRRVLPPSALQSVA
# [7] = system: Rattus norvegicus; experiment: Dose normalized AUC in rat at 4.2 mg/kg, iv and 13.6 mg/kg, po; assay type: ADME, organism-based; settings: in vivo
# [8] = Clearance in rat at 4.2 mg/kg, iv; assay type: ADME, organism-based; design: dose 4.2 mg/kg, route intravenous; settings: in vivo
# [9] = Bioavailability in rat at 4.2 mg/kg, iv and 13.6 mg/kg, po; assay type: ADME, organism-based; settings: in vivo
# [10] = system: Rattus norvegicus; experiment: Volume of distribution at steady state in rat at 4.2mg/kg, iv and 13.6 mg/kg, po; assay type: ADME, organism-based; design: dose 13.6 mg/kg, route oral; settings: in vivo
# [11] = Cmax in rat at 4.2mg/kg, iv and 13.6 mg/kg, po; assay type: ADME, organism-based; design: dose 13.6 mg/kg, route oral; settings: in vivo
# [12] = Cmax in rat at 2.3mg/kg, iv and 10.7 mg/kg, po; assay type: ADME, organism-based; design: dose 10.7 mg/kg, route oral; settings: in vivo
# [13] = Bioavailability in rat at 2.3 mg/kg, iv and 10.7 mg/kg, po; assay type: ADME, organism-based; settings: in vivo
# [14] = system: Rattus norvegicus; experiment: Dose normalized AUC in rat at 2.3 mg/kg, iv and 10.7 mg/kg, po; assay type: ADME, organism-based; settings: in vivo
# [15] = system: Rattus norvegicus; experiment: Volume of distribution at steady state in rat at 2.3mg/kg, iv and 10.7 mg/kg, po; assay type: ADME, organism-based; design: dose 10.7 mg/kg, route oral; settings: in vivo
# [16] = Clearance in rat at 2.3 mg/kg, iv; assay type: ADME, organism-based; design: dose 2.3 mg/kg, route intravenous; settings: in vivo
# [17] = system: Rattus norvegicus; experiment: Dose normalized AUC in rat at 2.1 mg/kg, iv and 9.2 mg/kg, po; assay type: ADME, organism-based; settings: in vivo
# [18] = Cmax in rat at 2.1 mg/kg, iv and 9.2 mg/kg, po; assay type: ADME, organism-based; settings: in vivo
# [19] = Volume of distribution at steady state in rat at 2.1 mg/kg, iv and 9.2 mg/kg, po; assay type: ADME, organism-based; settings: in vivo, read-out: Vdss
# [20] = system: Rattus norvegicus; experiment: Dose normalized AUC in rat at 2.0 mg/kg, iv and 10.6 mg/kg, po; assay type: ADME, organism-based; settings: in vivo
# [21] = Bioavailability in rat at 2.0 mg/kg, iv and 10.6 mg/kg, po; assay type: ADME, organism-based; settings: in vivo
# [22] = system: Rattus norvegicus; experiment: Volume of distribution at steady state in rat at 2.0mg/kg, iv and 10.6 mg/kg, po; assay type: ADME, organism-based; design: dose 10.6 mg/kg, route oral; settings: in vivo
# [23] = Clearance in rat at 2.0 mg/kg, iv; assay type: ADME, organism-based; design: dose 2 mg/kg, route intravenous; settings: in vivo
# [24] = Cmax in rat at 2.0mg/kg, iv and 10.6 mg/kg, po; assay type: ADME, organism-based; design: dose 10.6 mg/kg, route oral; settings: in vivo
# [25] = Volume of distribution at steady state in rat at 1.7 mg/kg, iv and 10.5 mg/kg, po; assay type: ADME, organism-based; settings: in vivo, read-out: Vdss
# [26] = Clearance in rat at 1.7 mg/kg, iv; assay type: ADME, organism-based; design: dose 1.7 mg/kg, route intravenous; settings: in vivo
# [27] = Cmax in rat at 1.7 mg/kg, iv and 10.5 mg/kg, po; assay type: ADME, organism-based; settings: in vivo
# [28] = system: Rattus norvegicus; experiment: Dose normalized AUC in rat at 1.7 mg/kg, iv and 10.5 mg/kg, po; assay type: ADME, organism-based; settings: in vivo
# [29] = Bioavailability in rat at 1.7 mg/kg, iv and 10.5 mg/kg, po; assay type: ADME, organism-based; settings: in vivo
# T1 sequence (P08069 31-736 limits assumed): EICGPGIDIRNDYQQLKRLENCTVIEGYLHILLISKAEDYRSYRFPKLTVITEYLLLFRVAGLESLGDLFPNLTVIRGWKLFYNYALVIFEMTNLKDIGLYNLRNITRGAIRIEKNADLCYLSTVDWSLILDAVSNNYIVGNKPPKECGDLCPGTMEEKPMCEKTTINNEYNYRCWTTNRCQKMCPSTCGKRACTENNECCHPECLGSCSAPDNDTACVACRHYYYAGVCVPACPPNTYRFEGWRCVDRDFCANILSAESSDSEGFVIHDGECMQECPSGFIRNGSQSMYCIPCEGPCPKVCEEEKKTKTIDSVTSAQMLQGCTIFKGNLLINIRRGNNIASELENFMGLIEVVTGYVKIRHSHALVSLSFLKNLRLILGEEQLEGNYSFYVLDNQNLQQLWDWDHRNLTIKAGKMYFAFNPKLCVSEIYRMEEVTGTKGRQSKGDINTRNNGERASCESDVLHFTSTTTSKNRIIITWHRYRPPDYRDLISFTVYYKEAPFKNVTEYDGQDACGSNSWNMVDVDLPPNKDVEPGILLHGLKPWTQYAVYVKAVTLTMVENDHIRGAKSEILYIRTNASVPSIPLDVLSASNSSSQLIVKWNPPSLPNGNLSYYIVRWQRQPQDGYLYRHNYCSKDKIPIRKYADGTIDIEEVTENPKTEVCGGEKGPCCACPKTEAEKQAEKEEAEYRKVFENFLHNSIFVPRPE
# T1 sequence (P08069 741-1367 limits assumed): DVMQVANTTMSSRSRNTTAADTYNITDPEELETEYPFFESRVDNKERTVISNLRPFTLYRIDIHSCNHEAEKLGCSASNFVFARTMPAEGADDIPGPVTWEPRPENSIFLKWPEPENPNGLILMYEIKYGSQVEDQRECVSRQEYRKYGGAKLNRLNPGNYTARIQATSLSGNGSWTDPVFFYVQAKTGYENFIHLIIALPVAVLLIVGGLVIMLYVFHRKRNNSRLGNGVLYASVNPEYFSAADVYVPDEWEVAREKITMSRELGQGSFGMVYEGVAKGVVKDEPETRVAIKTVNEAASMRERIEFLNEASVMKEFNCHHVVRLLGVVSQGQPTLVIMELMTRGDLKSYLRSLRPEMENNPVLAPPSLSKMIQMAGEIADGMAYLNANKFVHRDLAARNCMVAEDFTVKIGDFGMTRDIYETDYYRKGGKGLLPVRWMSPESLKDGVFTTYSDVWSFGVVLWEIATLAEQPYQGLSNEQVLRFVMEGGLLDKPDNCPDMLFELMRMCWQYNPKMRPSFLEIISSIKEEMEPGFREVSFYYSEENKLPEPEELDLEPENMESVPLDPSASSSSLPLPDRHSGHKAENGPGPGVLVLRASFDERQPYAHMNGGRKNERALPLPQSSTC
smiles,measurement,setting,value
CCCN1CCC=C(c2ccc(Nc3nc(Nc4cc(F)ccc4C(N)=O)c4cc[nH]c4n3)c(OC(C)C)c2)C1,IC50,[1],3.2 nM
same,IC50,[2],2240 nM
CCCN1CCC=C(c2ccc(Nc3nc(Nc4ccccc4C(N)=O)c4cc[nH]c4n3)c(C)c2)C1 [GSK-994854A],IC50,[1],5 nM
same,IC50,[3],6.3 nM
same,IC50,[4],12 nM
same,IC50,[5],1 nM
COc1cc(N2CCN(C(C)C)CC2)ccc1Nc1nc(Nc2ccc(F)cc2C(=O)NC[C@@H](O)CO)c2cc[nH]c2n1 [GSK-1392956A],IC50,[1],16 nM
same,IC50,[2],5600 nM
COc1cc(N2CCN(C(C)C)CC2)c(F)cc1Nc1nc(Nc2cccc(F)c2C(N)=O)c2cc[nH]c2n1,IC50,[1],2 nM
same,IC50,[2],190 nM
COc1cc(N2CCN(C(C)C)CC2)ccc1Nc1nc(Nc2cccc(F)c2C(N)=O)c2ccn(C)c2n1,IC50,[1],10000 nM
CCCN1CCC=C(c2ccc(Nc3nc(Nc4ccccc4C(N)=O)c4cc[nH]c4n3)c(F)c2)C1,IC50,[1],1.6 nM
same,IC50,[2],317 nM
same,IC50,[6],1600 nM
COc1cc(N2CCN(C(C)C)CC2)ccc1Nc1nc(Nc2cc(F)ccc2C(N)=O)c2cc[nH]c2n1,IC50,[1],0.8 nM
same,IC50,[2],130 nM
COc1c(Nc2nc(Nc3cccc(F)c3C(N)=O)c3cc[nH]c3n2)ccc(N2CCN(C(C)C)CC2)c1C,IC50,[1],8 nM
same,IC50,[2],3700 nM
COc1cc(N2CCN(C(C)C)CC2)ccc1N(C)c1nc(Nc2cccc(F)c2C(N)=O)c2cc[nH]c2n1,IC50,[1],50 nM
CCCN1CCC=C(c2ccc(Nc3nc(Nc4ccccc4C(N)=O)c4cc[nH]c4n3)cc2)C1,IC50,[1],1.6 nM
same,IC50,[6],5 nM
CCCN1CCCC(c2ccc(Nc3nc(Nc4cc(F)ccc4C(N)=O)c4cc[nH]c4n3)c(OC)c2)C1 (racemic) [GSK-1173862A],IC50,[1],0.4 nM
same,IC50,[2],60 nM
COc1cc(N2CCN(C(C)C)CC2)ccc1Nc1nc(Nc2ccc(F)cc2C(=O)NCCO)c2cc[nH]c2n1,IC50,[1],5 nM
same,IC50,[2],650 nM
COc1cc(N2CCN(C(C)C)CC2)ccc1Nc1nc(Nc2cc(F)c(F)cc2C(N)=O)c2cc[nH]c2n1,IC50,[1],0.5 nM
same,IC50,[2],53 nM
same,AUC,[7],114 ng·h/mL/mg/kg
same,clearance,[8],64 mL/min/kg
same,bioavailability,[9],45%
same,Vdss,[10],17 L/kg
same,Cmax,[11],152 ng/mL
COc1cc(N2CCOCC2)ccc1Nc1nc(Nc2cc(F)ccc2C(N)=O)c2cc[nH]c2n1,IC50,[1],1.6 nM
same,IC50,[2],68 nM
COc1cc(N2CCN(C(C)C)CC2)ccc1Nc1nc(Nc2cc(F)cc(F)c2C(N)=O)c2cc[nH]c2n1,IC50,[2],90 nM
same,Cmax,[12],200 ng/mL
same,bioavailability,[13],37%
same,AUC,[14],117 ng·h/mL/mg/kg
same,Vdss,[15],11 L/kg
same,clearance,[16],46 mL/min/kg
CCCN1CCC=C(c2ccc(Nc3nc(Nc4ccccc4C(N)=O)c4cc[nH]c4n3)c(C(F)(F)F)c2)C1,IC50,[1],20 nM
same,IC50,[2],> 10000 nM
COc1cc(N2CCN(C(C)C)CC2)ccc1Nc1nc(Nc2cccc(F)c2C(N)=O)c2cc[nH]c2n1,IC50,[2],109 nM
same,AUC,[17],156 ng·h/mL/mg/kg
same,Cmax,[18],184 ng/mL
same,Vd,[19],18.5 L/kg
CNC(=O)c1c(F)cccc1Nc1nc(Nc2ccc(N3CCN(C(C)C)CC3)cc2OC)nc2[nH]ccc12,IC50,[1],5 nM
same,AUC,[20],277 ng·h/mL/mg/kg
same,IC50,[2],370 nM
same,bioavailability,[21],83%
same,Vdss,[22],22.3 L/kg
same,clearance,[23],32 mL/min/kg
same,Cmax,[24],418 ng/mL
CCCN1CCC=C(c2ccc(Nc3nc(Nc4cc(F)ccc4C(N)=O)c4cc[nH]c4n3)c(OC)c2)C1,IC50,[1],0.8 nM
same,IC50,[2],82 nM
COc1ccc(N2CCN(C(C)C)CC2)cc1Nc1nc(Nc2cccc(F)c2C(N)=O)c2cc[nH]c2n1,IC50,[1],4 nM
same,IC50,[2],160 nM
COc1cc(C)c(N2CCN(C(C)C)CC2)cc1Nc1nc(Nc2cccc(F)c2C(N)=O)c2cc[nH]c2n1,IC50,[1],20 nM
same,IC50,[2],270 nM
COc1cc(N2CCN(C(C)C)CC2)c(Cl)cc1Nc1nc(Nc2cccc(F)c2C(N)=O)c2cc[nH]c2n1,IC50,[1],1.6 nM
same,IC50,[2],65 nM
COc1cc(N2CCN(C(C)C)CC2)c(C)cc1Nc1nc(Nc2cccc(F)c2C(N)=O)c2cc[nH]c2n1,IC50,[1],2 nM
same,IC50,[2],38 nM
COc1c(Nc2nc(Nc3cccc(F)c3C(N)=O)c3cc[nH]c3n2)ccc(N2CCN(C(C)C)CC2)c1F,IC50,[1],4 nM
same,IC50,[2],574 nM
COc1cc(N2CCN(C(C)C)CC2)c(OC)cc1Nc1nc(Nc2cccc(F)c2C(N)=O)c2cc[nH]c2n1,IC50,[1],3.2 nM
same,IC50,[2],90 nM
CCCN1CCN(c2ccc(Nc3nc(Nc4cc(F)ccc4C(N)=O)c4cc[nH]c4n3)c(OC)c2)CC1,IC50,[1],1.6 nM
same,IC50,[2],122 nM
CCCN1CCC(c2ccc(Nc3nc(Nc4cc(F)ccc4C(N)=O)c4cc[nH]c4n3)c(OC)c2)CC1 [GSK-1326255A],IC50,[1],0.3 nM
same,IC50,[2],47 nM
COCCNC(=O)c1cc(F)ccc1Nc1nc(Nc2ccc(N3CCN(C(C)C)CC3)cc2OC)nc2[nH]ccc12,IC50,[1],25 nM
same,IC50,[2],760 nM
COc1cc(N2CCN(C(C)C)CC2)ccc1Nc1nc(Nc2ccc(F)c(F)c2C(N)=O)c2cc[nH]c2n1,IC50,[2],213 nM
COc1cc(N2CCN(C(C)C)CC2)ccc1Nc1nc(Nc2ccc(F)cc2C(N)=O)c2cc[nH]c2n1 [GSK-1220512A],IC50,[1],0.8 nM
same,IC50,[2],60 nM
CCCN1CCC=C(c2ccc(Nc3nc(Nc4ccccc4C(N)=O)c4cc[nH]c4n3)c(OC)c2)C1,IC50,[1],0.6 nM
same,IC50,[2],104 nM
same,IC50,[6],> 10000 nM
COc1cc(N2CCN(C(C)C)CC2)ccc1Nc1nc(Nc2ccc(F)cc2C(=O)NO)c2cc[nH]c2n1,IC50,[1],6.3 nM
same,IC50,[2],613 nM
COc1cc(N2CCN(C(C)C)CC2)ccc1Nc1nc(Nc2ccccc2C(N)=O)c2cc[nH]c2n1,IC50,[1],1 nM
same,Vd,[25],19.5 L/kg
same,IC50,[2],71 nM
same,clearance,[26],142 mL/min/kg
same,Cmax,[27],69 ng/mL
same,AUC,[28],35 ng·h/mL/mg/kg
same,bioavailability,[29],37%
CNC(=O)c1cc(F)ccc1Nc1nc(Nc2ccc(N3CCN(C(C)C)CC3)cc2OC)nc2[nH]ccc12,IC50,[1],3.2 nM
same,IC50,[2],135 nM
